Laboratory results taken from BindingDB's records for doi:10.1016/s0960-894x(98)00116-4 (University of Waterloo, 1999).
*1 amine or outer side, *2 acyl side, *3 side chain or, on linkers, in order; H or OH if unused. Where a SMILES comes first, the peptide text is derived from it. The star is where a group is joined. γGlu = O=C(O)[CH](CCC(=O)[*:2])N[*:1]; NHOH = ON*

How the values were obtained:
[1] = biological target: Lactoylglutathione lyase (Saccharomyces cerevisiae); test: Compound was evaluated for inhibition of Saccharomyces cerevisiae glyoxalase-I by using enzymatic assay at each of 6 substrate concentrations between 0.1 mM and 2.0 mM
[2] = biological target: Lactoylglutathione lyase (Saccharomyces cerevisiae); test: Compound was evaluated for inhibition of Saccharomyces cerevisiae glyoxalase-I, activity is determined with 0.5 mM substrate

Ki [1] [µM] | IC50 [2] [µM] | SMILES
1.9 | – | CN(O)C(=O)CCC(NC(=O)CCC(N)C(=O)O)C(=O)NCC(=O)O (stereo not drawn) [2-Amino-4-[1-(carboxymethyl-carbamoyl)-3-(hydroxy-methyl-carbamoyl)-propylcarbamoyl]-butyric acid anion]
92.9 | – | NC(CCC(=O)NC(CCC(=O)NO)C(=O)NCC(=O)O)C(=O)O (stereo not drawn) [2-Amino-4-[1-(carboxymethyl-carbamoyl)-3-hydroxycarbamoyl-propylcarbamoyl]-butyric acid anion] (γGlu-Glu(NHOH)-Gly-OH; configuration not given here)
– | 1620 | CCOC(=O)CNC(=O)C(CCC(=O)NO)NC(=O)CCC(N)C(=O)O (stereo not drawn) [2-Amino-4-[1-(ethoxycarbonylmethyl-carbamoyl)-3-hydroxycarbamoyl-propylcarbamoyl]-butyric acid anion] (γGlu-Glu(NHOH)-Gly-OEt; configuration not given here)
